From patent US12070452B2, “Compounds targeting HSP110 protein for cancer treatment” (INSERM (Institut National de la Santé et de la Recherche …, priority 2018, dated 2024)

What was measured:
[1] = Body and spleen weights of mice during treatment; type: in vivo; details: immunodeficient mice, 10 or 20 mg/kg intraperitoneally
Method: FIG. 11C: Body weight monitoring of Immunodeficient mice treated intraperitoneally with the compound 52 (=inhibitor 52) at 10 or 20 mg/kg or with vehicle at the same frequency. (Abscissa: Days from 0 to 20 in day; Ordinate: Body weight in g from 24 to 34 g (scale 2)).
FIG. 11D: Spleen weights monitoring of Immunodeficient mice treated intraperitoneally with the compound 52 (=inhibitor 52) at 10 or 20 mg/kg or with vehicle at the same frequency. (Abscissa: Treatments vehicle, 10 mg/kg or 20 mg/kg of compound 52; Ordinate: Spleen weight in mg from 20 to 100 mg (scale 20)).

[2] = test system: tumor-infiltrating macrophages; assay: Macrophage M1/M2-like markers in tumor slides, NOD/SCID HCT116 xenograft model; type: in vivo, mouse
Method: Statistical analysis has been performed by ANOVA (***=p=0.0019). FIG. 9B: M2-like markers pSTAT6 and ALOX15 were determined in tumor slides from NOD mice bearing HCT116 xenografts, treated or not with the compound 33 (related to formula (II)). Statistical analysis has been performed by ANOVA (***: p=0.0481). […] Anti-p-STAT1 (1/200; polyclonal, Cell Signaling), anti-SOCS1 (Suppressor of Cytokine Signaling protein 1, 1/200; polyclonal, Santa Cruz), and anti-NOS2 (Nitric Oxide Synthase 2, 1/200; polyclonal Santa Cruz) antibodies were used for M1-like macrophage markers. Anti-pSTAT6 (1/200; polyclonal Santa Cruz), anti-arginase-1 (1/200; polyclonal Santa Cruz) and anti-ALOX15 (Arachidonate 15-LipOXygenase, 1/200; monoclonal Santa Cruz) antibodies were used for M2-like macrophage markers. Primary antibodies were detected using Alexa fluor 488 or Alexa fluor 568-coupled secondary antibodies (1/500, Invitrogen). Nuclei were stained with 10 μl of ProLong Gold Antifade Mountant with DAPI (Molecular Probes). The same protocol was used for NOD/SCID mice except that mice were killed after 16 days after HCT116 cells injection. For the Balb/c model, mice were sacrificed at day 62 (day 1 being the first day of treatment). […] Especially the pSTAT1 relative expression measured is about 1.5 for compound 33 compared to 1.0 for the control, the NOS2 relative expression measured is about 1 for compound 33 compared to 2.5 for the control (FIG. 8A) in CT-26-Balb/c mice model. The pSTAT1 relative expression measured is about 1.5 for compound 33 compared to 0 for the control and the NOS2 relative expression measured is about 20 for compound 33 compared to 2 for the control (FIG. 8B) in NOD/SCID mice model.

[3] = test system: tumor-infiltrating macrophages; assay: Macrophage M1/M2-like markers in tumor slides, CT-26-Balb/c model; type: in vivo, mouse
Method: FIG. 8A: Pro-inflammatory M1-like macrophage markers pSTAT1 and NOS2 determined in tumor slides from CT-26-Balb/c mice model. Animals were treated or not every 3 days with the compound 33 (5 mg/Kg) Statistical analysis has been performed by ANOVA (***=p=0.0051). […] FIG. 9A: Anti-inflammatory macrophage M2-like markers Arg1 and pSTAT6 determined in tumor slides from CT-26-Ballb/c mice model. Animals were treated or not every 3 days with the compound 33 (5 mg/Kg). Statistical analysis has been performed by ANOVA (***=p=0.0031). […] Anti-p-STAT1 (1/200; polyclonal, Cell Signaling), anti-SOCS1 (Suppressor of Cytokine Signaling protein 1, 1/200; polyclonal, Santa Cruz), and anti-NOS2 (Nitric Oxide Synthase 2, 1/200; polyclonal Santa Cruz) antibodies were used for M1-like macrophage markers. Anti-pSTAT6 (1/200; polyclonal Santa Cruz), anti-arginase-1 (1/200; polyclonal Santa Cruz) and anti-ALOX15 (Arachidonate 15-LipOXygenase, 1/200; monoclonal Santa Cruz) antibodies were used for M2-like macrophage markers. Primary antibodies were detected using Alexa fluor 488 or Alexa fluor 568-coupled secondary antibodies (1/500, Invitrogen). Nuclei were stained with 10 μl of ProLong Gold Antifade Mountant with DAPI (Molecular Probes). The same protocol was used for NOD/SCID mice except that mice were killed after 16 days after HCT116 cells injection. For the Balb/c model, mice were sacrificed at day […] (day 1 being the first day of treatment). […] Especially the pSTAT1 relative expression measured is about 1.5 for compound 33 compared to 1.0 for the control, the NOS2 relative expression measured is about 1 for compound 33 compared to 2.5 for the control (FIG. 8A) in CT-26-Balb/c mice model. The pSTAT1 relative expression measured is about 1.5 for compound 33 compared to 0 for the control and the NOS2 relative expression measured is about 20 for compound 33 compared to 2 for the control (FIG. 8B) in NOD/SCID mice model.

[4] = NOD/SCID HCT116 model, control 1
[5] = CT-26-Balb/c model, control 1.0

Compound | toxicity (body and spleen weights) [1] | SOCS1 expression (M1 marker) ([2]; NOD/SCID (xenograft) model) | pSTAT1 relative expression (M1 marker) ([2]; NOD/SCID HCT116 model, control 0) | ALOX15 relative expression (M2 marker) [2, 4] | pSTAT6 relative expression (M2 marker) [2, 4] | NOS2 relative expression (M1 marker) ([2]; NOD/SCID HCT116 model, control 2) | SOCS1 expression (M1 marker) ([3]; Balb/c (syngeneic) model) | pSTAT1 relative expression (M1 marker) ([3]; CT-26-Balb/c model, 5 mg/Kg, control 1.0) | NOS2 relative expression (M1 marker) ([3]; CT-26-Balb/c model, 5 mg/Kg, control 2.5 as printed) | Arg1 relative expression (M2 marker) [3, 5] | pSTAT6 relative expression (M2 marker) [3, 5]
COc1cc(-c2cnc(-c3cnc(-c4cc(OC)c(OC)c(OC)c4)c(C)c3)c(/C=C/c3ccccc3)c2)cc(OC)c1OC [compound 52, (E)-5′-Methyl-3-styryl-5,6′-bis(3,4,5-trimethoxyphenyl)-2,3′-bipyridine] | no toxicity |  |  |  |  |  |  |  |  |  | 
COc1ccc(-c2ncc(-c3ncc(-c4cc(OC)c(OC)c(OC)c4)cc3/C=C/c3ccccc3)cc2C)cc1OC [compound 33, (E)-6′-(3,4-Dimethoxyphenyl)-5′-methyl-3-styryl-5-(3,4,5-trimethoxyphenyl)-2,3′-bipyridine] |  | increase | about 1.5 | about 0 | about 0 | about 20 | increase | about 1.5 | about 1 | about 0.5 | about 0.5
